Results on three compounds are retold here after patent EP4603506A1, “NOVEL GLP-1 RECEPTOR ANTAGONIST, AND PHARMACEUTICAL COMPOSITION FOR PREVENTING OR TREATING CONGENITAL […] OR HYPOGLYCEMIA, COMPRISING SAME” (Hanmi Pharm. Co., Ltd., priority 2022, dated 2024).

Residues, ends and D or L forms follow the SMILES beside them.

For test [1], the target named is human GLP-1R (hGLP-1R) (Homo sapiens, UniProt P43220). Kind of test: In vitro cell activity: cAMP inhibition (LANCE Ultra cAMP kit) in CHO cells expressing human GLP-1R, with GLP-1 added. It counts as cell-based. As to conditions: relative activity from IC50 of cAMP inhibition; 0.1 nM GLP-1 added; comparative substance exendin-3 (9-39) amide = 100. How it is done: The human GLP-1R-expressed CHO cells were cultured in a 384-well plate for 24 hours. Thereafter, the culture was removed, and 10 µL of each serially diluted substance was added to the plate, followed by incubation at room temperature for 30 minutes. Then, 5 µL of Eu-cAMP tracer was added, and then 5 µL of a buffer containing cAMP antibodies was added, followed by incubation at room temperature for 60 minutes. […]
Sequence of human GLP-1R (hGLP-1R) (P43220 24-463): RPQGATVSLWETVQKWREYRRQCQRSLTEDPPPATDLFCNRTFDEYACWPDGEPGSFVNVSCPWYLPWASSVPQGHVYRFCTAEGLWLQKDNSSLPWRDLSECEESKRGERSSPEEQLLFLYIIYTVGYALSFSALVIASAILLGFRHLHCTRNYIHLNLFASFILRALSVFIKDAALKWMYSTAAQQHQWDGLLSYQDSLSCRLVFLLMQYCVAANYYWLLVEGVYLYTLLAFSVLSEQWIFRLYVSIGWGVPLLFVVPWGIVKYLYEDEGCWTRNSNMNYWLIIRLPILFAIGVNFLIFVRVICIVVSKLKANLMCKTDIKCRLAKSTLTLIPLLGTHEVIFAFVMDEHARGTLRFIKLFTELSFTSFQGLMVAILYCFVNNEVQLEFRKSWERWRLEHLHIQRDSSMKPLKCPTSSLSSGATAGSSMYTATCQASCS
Background: Time-resolved FRET reads energy transfer from a long-lived donor to a nearby acceptor.

For test [2], the system named is PBH rat model (VSG, SD rats). Put plainly: Mixed meal tolerance test (MMTT) in postbariatric hypoglycemia (PBH) rat model induced by vertical sleeve gastrectomy (VSG). It is filed as in vivo. As to conditions: MMTT 4 hours after 3720 µg/kg (1070.5 nmol/kg) subcutaneous, versus excipient, FIG. 2. How it is done: A PBH rat model was established by performing sham operations or VSG surgery on SD rats. The rats were fed a high-fat diet (HFD) for 19 weeks, and divided randomly into two groups with 10 animals each (an excipient control group and a GLP-1R antagonist analog conjugate administered group). […] As for the MMTT, all the groups were orally administered 2 mL of a mixed meal (Ensure Plus®, Abbott, USA) once after 5-hour fasting, and then blood samples were consecutively collected at specific time intervals (0, 15, 30, 45, 60, and 120 minutes) to measure blood glucose levels (GDoctor, Allmedicus Co., Korea). Statistical analysis was performed using the one-way ANOVA to compare between the VSG rat excipient group (control group) and the test groups (* ~ ***p < 0.05 ~ 0.001). Particularly, the dose was expressed as a value based on the value obtained by subtracting the mass of the fatty acid moieties from the total mass of the acylated GLP-1 receptor antagonist analog conjugate, that is, the value obtained by summing the masses of each of only polypeptide moieties.
Additionally, 15 minutes after the MMTT test, plasma was isolated from blood samples, and the insulin secretion level was measured using a rat insulin ELISA kit ([…], Merck Millipore, USA).

Test [3] deals with C57BL/6N mice. Kind of test: Oral glucose tolerance test (OGTT), blood glucose levels. It is filed as in vivo. As to conditions: 2 g/kg oral glucose after 4-hour fasting, 3690 and 7380 µg/kg subcutaneous, 24 hours before OGTT, versus vehicle control, FIG. 1. Here is the method:
The test was conducted on 8-week-old male mice, and during the study, five mice were housed in each group and had free access to drinking water. The lights were turned off from 6 PM to 6 AM.
The administration of the drugs was completed 24 hours before the oral glucose tolerance test (OGTT) for Groups 1, 3, and 4, and 30 minutes before for Group 2. Particularly, the dose was expressed as a value based on the value obtained by subtracting the mass of the fatty acid moieties from the total mass of the acylated GLP-1 receptor antagonist analog conjugate, that is, the value obtained by summing the mass of each of only polypeptide moieties.
As for the OGTT, all the groups were orally administered 2 g/kg glucose once after 4-hour fasting, and then blood samples were consecutively collected from the tail vein at specific time intervals (0, 15, 30, 60, and 120 minutes) to measure blood glucose levels by a OneTouch blood glucose meter (OneTouch Select®, LifeScan, USA). Statistical analysis was performed using an unpaired t-test to compare between the control group and the test groups (# ~ ###p < 0.05 ~ 0.001).

As to `CC[C@H](C)[C@H](NC(=O)[C@H](Cc1ccccc1)NC(=O)[C@H](CCC(=O)O)NC(=O)[C@H](CCCNC(=N)N)NC(=O)[C@@H](NC(=O)[C@H](C)NC(=O)[C@H](CCC(N)=O)NC(=O)[C@H](CCC(=O)O)NC(=O)[C@H](CCC(=O)O)NC(=O)[C@H](CC(C)C)NC(=O)[C@H](Cc1ccc(O)cc1)NC(=O)[C@H](CO)NC(=O)[C@H](CO)NC(=O)[C@@H](NC(=O)[C@H](CC(=O)O)NC(C)=O)C(C)C)C(C)C)C(=O)N[C@@H](C)C(=O)N[C@@H](Cc1c[nH]c2ccccc12)C(=O)N[C@@H](CC(C)C)C(=O)N[C@H](C(=O)N[C@@H](CCCCN)C(=O)NCC(=O)NCC(=O)N1CCC[C@H]1C(=O)N[C@@H](CO)C(=O)N[C@@H](CO)C(=O)NCC(=O)N[C@@H](C)C(=O)N1CCC[C@H]1C(=O)N1CCC[C@H]1C(=O)N1CCC[C@H]1C(=O)N[C@@H](CO)C(N)=O)C(C)C` [SEQ ID NO: 9] (Ac-DVSSYLEEQAVREFIAWLVKGGPSSGAPPPS-NH2), the “In vitro activity compared with comparative substance (%)” value in test [1] is 188.6%.

For the compound “DLSSYLEEEAVRLFIEWLKNGGPSSGAPPPSK(2) [SEQ ID NO: 17]”, the figures for the blood glucose levels result in test [2] and in test [3] were “significantly increased blood glucose levels in vivo compared with PBH rats administered the excipient” and “increased the blood glucose levels in vivo compared with the control group at all the doses”, respectively.

Turning to `CC[C@H](C)[C@H](NC(=O)[C@H](Cc1ccccc1)NC(=O)[C@H](CC(C)C)NC(=O)[C@H](CCCNC(=N)N)NC(=O)[C@H](C)NC(=O)[C@H](C)NC(=O)[C@H](CCC(=O)O)NC(=O)[C@H](CCC(=O)O)NC(=O)[C@H](CCC(=O)O)NC(=O)[C@H](CC(C)C)NC(=O)[C@H](Cc1ccc(O)cc1)NC(=O)[C@H](CO)NC(=O)[C@H](CO)NC(=O)[C@H](CC(C)C)NC(=O)[C@H](CC(=O)O)NC(C)=O)C(=O)N[C@@H](CCC(=O)O)C(=O)N[C@@H](Cc1c[nH]c2ccccc12)C(=O)N[C@@H](CC(C)C)C(=O)N[C@@H](CCCCNC(=O)COCCOCCNC(=O)COCCOCCNC(=O)CC[C@H](NC(=O)CCCCCCCCCCCCCCCCC(=O)O)C(=O)O)C(=O)N[C@@H](CC(N)=O)C(=O)NCC(=O)NCC(=O)N1CCC[C@H]1C(=O)N[C@@H](CO)C(=O)N[C@@H](CO)C(=O)NCC(=O)N[C@@H](C)C(=O)N1CCC[C@H]1C(=O)N1CCC[C@H]1C(=O)N1CCC[C@H]1C(=O)N[C@@H](CO)C(N)=O` [SEQ ID NO: 14], the “In vitro activity compared with comparative substance (%)” value in test [1] amounted to 1.7%.
